Assay results as given in ChEMBL document CHEMBL4622884, “Synthesis of novel 3,5,6-trisubstituted 2-pyridone derivatives and evaluation for their anti-inflammatory activity” (Bioorg Med Chem, 2020).
Calls of active or inactive are those of the source. The rule behind the calls is not given here.

Key:
[1] = molecular target: T1, Prostaglandin G/H synthase 2 (Homo sapiens) (UniProt P35354); assay: Inhibition of recombinant human COX-2 at 1.95 uM by microplate reader based assay relative to control
T1 sequence (whole entry): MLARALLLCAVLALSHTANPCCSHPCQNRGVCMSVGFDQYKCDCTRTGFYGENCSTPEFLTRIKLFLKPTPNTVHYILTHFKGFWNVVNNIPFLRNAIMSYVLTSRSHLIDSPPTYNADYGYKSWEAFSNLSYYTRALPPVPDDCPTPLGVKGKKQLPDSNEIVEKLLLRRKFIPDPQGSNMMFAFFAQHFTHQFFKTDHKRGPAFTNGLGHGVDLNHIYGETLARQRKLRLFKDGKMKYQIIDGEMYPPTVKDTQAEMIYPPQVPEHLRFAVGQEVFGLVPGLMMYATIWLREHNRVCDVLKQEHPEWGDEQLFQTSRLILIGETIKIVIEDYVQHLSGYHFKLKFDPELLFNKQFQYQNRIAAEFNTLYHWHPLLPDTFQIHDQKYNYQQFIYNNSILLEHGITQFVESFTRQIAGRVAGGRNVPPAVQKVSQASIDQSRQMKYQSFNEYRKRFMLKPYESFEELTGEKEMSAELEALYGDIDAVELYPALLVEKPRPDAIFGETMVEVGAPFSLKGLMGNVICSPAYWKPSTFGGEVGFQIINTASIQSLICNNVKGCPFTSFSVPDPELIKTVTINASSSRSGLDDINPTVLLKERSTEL

[2] = molecular target: T1, Prostaglandin G/H synthase 2 (Homo sapiens); assay: Inhibition of recombinant human COX-2 at 31.25 uM by microplate reader based assay relative to control
Mus musculus [3] = assay: Anti-inflammatory activity against croton oil-induced ear edema in Swiss mouse model assessed as inhibition of myeloperoxidase activity at 1.25 mg/ear administered topically immediately after croton oil-stimulation and measured after 6 hrs by microplate spectrophotometry relative to control; assay type: functional
Mus musculus [4] = assay: Anti-inflammatory activity against croton oil-induced ear edema in Swiss mouse model assessed as inhibition of myeloperoxidase activity at 0.625 mg/ear administered topically immediately after croton oil-stimulation and measured after 6 hrs by microplate spectrophotometry relative to control; assay type: functional
Mus musculus [5] = assay: Anti-inflammatory activity against croton oil-induced ear edema in Swiss mouse model assessed as inhibition of ear edema at 1.25 mg/ear administered topically immediately after croton oil-stimulation and measured after 6 hrs relative to control; assay type: functional
Mus musculus [6] = assay: Anti-inflammatory activity against croton oil-induced ear edema in Swiss mouse model assessed as inhibition of ear edema at 0.625 mg/ear administered topically immediately after croton oil-stimulation and measured after 6 hrs relative to control; assay type: functional
[7] = Cytotoxicity against mouse L929 cells assessed as reduction in cell viability measured after 72 hrs by MTT assay; assay type: cell-based
[8] = Cytotoxicity against mouse J774A1 cells assessed as reduction in cell viability measured after 48 hrs by MTT assay; assay type: cell-based, J774.A1
[9] = molecular target: T2, COX-1 (Prostaglandin G/H synthase 1) (Ovis aries, UniProt P05979); assay: Inhibition of ovine COX-1 at 31.25 uM by microplate reader based assay relative to control; details: sheep, ovine COX-1 enzyme
T2 sequence (P05979 whole entry): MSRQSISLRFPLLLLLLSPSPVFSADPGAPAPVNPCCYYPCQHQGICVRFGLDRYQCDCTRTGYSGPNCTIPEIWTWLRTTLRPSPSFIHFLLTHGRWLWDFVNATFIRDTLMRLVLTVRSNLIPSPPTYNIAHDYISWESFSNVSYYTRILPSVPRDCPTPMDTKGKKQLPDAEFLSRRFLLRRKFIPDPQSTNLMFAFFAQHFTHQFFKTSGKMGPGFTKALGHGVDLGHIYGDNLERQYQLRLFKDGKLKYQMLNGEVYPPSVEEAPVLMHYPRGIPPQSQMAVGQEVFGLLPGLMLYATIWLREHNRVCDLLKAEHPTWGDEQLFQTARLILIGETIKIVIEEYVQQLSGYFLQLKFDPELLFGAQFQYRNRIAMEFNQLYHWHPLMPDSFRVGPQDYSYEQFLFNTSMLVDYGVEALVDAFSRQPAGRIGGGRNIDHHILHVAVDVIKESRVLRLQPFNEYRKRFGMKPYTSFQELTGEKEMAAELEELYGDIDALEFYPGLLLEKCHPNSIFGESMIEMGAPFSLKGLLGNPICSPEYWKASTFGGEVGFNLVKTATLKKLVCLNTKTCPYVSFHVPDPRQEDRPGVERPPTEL

Ovis aries = organism: Ovis aries; assay: Selectivity index, ratio of IC50 of ovine COX-1 to […]
Mus musculus [10] = assay: Anti-inflammatory activity against croton oil-induced ear edema in Swiss mouse model assessed as inhibition of ear edema at 1 mg/ear administered topically immediately after croton oil-stimulation and measured after 6 hrs relative to control; assay type: functional
Mus musculus [11] = assay: Anti-inflammatory activity against croton oil-induced ear edema in Swiss mouse model assessed as inhibition of myeloperoxidase activity at 1 mg/ear administered topically immediately after croton oil-stimulation and measured after 6 hrs by microplate spectrophotometry relative to control; assay type: functional
[12] = molecular target: T2, COX-1 (Prostaglandin G/H synthase 1); assay: Inhibition of ovine COX-1 at 1.95 uM by microplate reader based assay relative to control; details: sheep, ovine COX-1 enzyme

Structure (SMILES) | inhibition (INH) (Mus musculus [3]) [%] | inhibition (INH) (Mus musculus [4]) [%] | inhibition (INH) (Mus musculus [5]) [%] | inhibition (INH) (Mus musculus [6]) [%] | CC50 at 72 h [7] [µM] | CC50 at 48 h [8] [µM] | also measured
CCOC(=O)c1[nH]c(=O)c(C#N)cc1C(=O)c1ccc([N+](=O)[O-])cc1.CNC [listing 1 of 2 here] | – | – | – | – | – | – | inhibition [1]: 74%; inhibition [2]: 10.1%
CCOC(=O)c1[nH]c(=O)c(C(=O)OCC)cc1C(=O)c1ccc(Cl)cc1 | 88.1 | 94.4 | – | – | – | – | –
CCOC(=O)c1[nH]c(=O)c(C#N)cc1C(=O)c1ccc(Cl)cc1.CNC | 99.9 | 99 | 71.3 | 70.1 | – | – | –
CCOC(=O)c1[nH]c(=O)c(C#N)cc1C(=O)c1ccc(Br)cc1 | – | – | – | – | 242 | < 100 | inhibition (Mus musculus [5]): Active
CCOC(=O)c1[nH]c(=O)c(C#N)cc1C(=O)c1ccc(F)cc1 | – | – | – | – | 232 | < 100 | inhibition (Mus musculus [5]): Active
CCOC(=O)c1[nH]c(=O)c(C(=O)OCC)cc1C(=O)c1ccc([N+](=O)[O-])cc1 | 99 | 99 | 87.9 | 66.3 | – | – | –
CCOC(=O)c1[nH]c(=O)c(C#N)cc1C(=O)c1ccc([N+](=O)[O-])cc1.CNC [listing 2 of 2 here] | 98.9 | 99 | 98.9 | 70 | 257 | < 100 | inhibition at 31.25 µM [9]: 16.3%
CCOC(=O)c1[nH]c(=O)c(C#N)cc1C(=O)c1ccc(C)cc1 | – | – | – | – | 512 | 194 | inhibition (Mus musculus [5]): Active
CCOC(=O)c1[nH]c(=O)c(C#N)cc1C(=O)c1ccc(Cl)cc1 | 99 | 99 | 73.9 | – | 218 | < 100 | –
CCOC(=O)c1[nH]c(=O)c(C(=O)O)cc1C(=O)c1ccc(Cl)cc1 | 93 | 99 | – | – | – | – | –
N#Cc1cc(C(=O)c2ccc([N+](=O)[O-])cc2)c(C(=O)O)[nH]c1=O | 97.6 | 99 | 64.6 | – | – | – | –
CS(=O)(=O)c1ccc(-c2cc(Cn3ccnc3)c3ccc(C4CCCCC4)c(C4CCCCC4)c3n2)cc1 | – | – | – | – | – | – | Ratio IC50 (Ovis aries): 548
N#Cc1cc(C(=O)c2ccc(Cl)cc2)c(C(=O)O)[nH]c1=O | – | 84.5 | – | 74.5 | – | – | –
CCOC(=O)c1[nH]c(=O)c(C#N)cc1C(=O)c1ccc(OC)cc1 | – | – | – | – | 259 | < 100 | inhibition (Mus musculus [5]): Active
CCOC(=O)c1[nH]c(=O)c(C#N)cc1C(=O)c1ccccc1 | – | – | – | – | 465 | 215 | inhibition (Mus musculus [5]): Active
CCOC(=O)c1[nH]c(=O)c(C#N)cc1C(=O)c1ccc([N+](=O)[O-])cc1 | 99 | 99 | 93 | – | 213 | < 100 | –
COc1ccc2c(c1)c(CC(=O)O)c(C)n2C(=O)c1ccc(Cl)cc1 [INDOMETHACIN] | – | – | – | – | – | – | inhibition (INH) (Mus musculus [10]): 98.2%; inhibition (INH) (Mus musculus [11]): 48%
O=C(c1ccc(Cl)cc1)c1cc(C(=O)O)c(=O)[nH]c1C(=O)O | 99 | 89.4 | 54.2 | 84 | – | – | –
O=C(c1ccc([N+](=O)[O-])cc1)c1cc(C(=O)O)c(=O)[nH]c1C(=O)O | 94.3 | 99.6 | 93 | 90.8 | 439 | 388 | inhibition [1]: 20.2%; inhibition [2]: 38.1%; inhibition at 1.95 µM [12]: 12.4%; inhibition at 31.25 µM [9]: 36.8%
